# Laboratory results from patent US6806265B2, “Non-nucleoside reverse transcriptase inhibitors” (priority 2002, dated 2004).
# Like-named read-outs stand apart in the source and are kept apart here.
# How the values were obtained:
# [1] = target: T1, HIV-1 RT double mutant K103N/Y181C (Human immunodeficiency virus type 1 group M subtype B, UniProt P03366, K702N/Y780C); test: biochemical
# T1 construct: HIV-1 wild type reverse transcriptase as well as the clinically significant double mutant K103N/Y181C
# Protocol: (§1) Utilizing the Reverse Transcriptase (RT) Assay described below, compounds were tested for their ability to inhibit the RNA-dependent DNA polymerase activity of HIV-1 RT. Certain specific compounds described in the Examples and in Tables 1-4, were so tested. The results of this testing appear in Table 5 as ranges of IC50 (nM) and EC50 (nM).
# (§2) Reverse Transcriptase (RT) Assays
# [2] = target: T2, HIV-1 wild type reverse transcriptase (Human immunodeficiency virus type 1 group M subtype B, UniProt P03366); test: biochemical; settings: read-out: IC50 WT RT
# T2 construct: HIV-1 wild type reverse transcriptase
# Protocol: as §1, §2
# [3] = test system: HIV-1 double mutant K103N/Y181C; test: microbe, parasite or virus in culture; format: cell-based
# [4] = RT double mutant K103N/Y181C, read-out: IC50 K103N/Y181C
# [5] = double mutant K103N/Y181C, read-out: EC50 K103N/Y181C
# [6] = Human immunodeficiency virus 1, read-out: EC50 K103N/Y181C (nM)
SMILES,"IC50 [1, 4] [nM]",IC50 ([2]; wild type RT) [nM],other results
CCN1c2ncc(CCOc3ccc(-c4cccc(C(C)C(=O)O)c4)cc3C)cc2C(=O)N(C)c2cccnc21 (centres unmarked) [Entry 1016],50 to 100,< 50,
CCN1c2ncc(CCOc3ccc(-c4ccc(C(=O)O)c(C)c4)cc3C)cc2C(=O)N(C)c2cccnc21 [Entry 1017],< 50,< 50,
CCN1c2ncc(CCOc3ccc(-c4ccc(C(=O)O)c(F)c4)cc3C)cc2C(=O)N(C)c2cccnc21 [Entry 1018],< 50,< 50,
CCN1c2ncc(CCOc3ccc(-c4cc(Cl)c(C(=O)O)cc4F)cc3C)cc2C(=O)N(C)c2cccnc21 [Entry 1020],< 50,< 50,
CCN1c2ncc(CCOc3ccc(-c4ccc(CC(=O)O)cc4C)cc3C)cc2C(=O)N(C)c2cccnc21 [Entry 1023],50 to 100,,
CCN1c2ncc(CCOc3ccc(-c4ccc(CC(=O)O)cc4Cl)cc3C)cc2C(=O)N(C)c2cccnc21 [Entry 1025],< 50,< 50,
CCN1c2ncc(CCOc3ccc(-c4ccc(CC(=O)O)cc4[N+](=O)[O-])cc3C)cc2C(=O)N(C)c2cccnc21 [Entry 1027],50 to 100,< 50,
CCN1c2ncc(CCOc3ccc(-c4cc(C(=O)O)ccc4F)cc3C)cc2C(=O)N(C)c2cccnc21 [Entry 1029],50 to 100,< 50,
CCN1c2ncc(CCOc3ccc(-c4cc(C(=O)O)ccc4OC)cc3C)cc2C(=O)N(C)c2cccnc21 [Entry 1030],> 100,< 50,
CCN1c2ncc(CCOc3ccc(-c4nc(C(=O)O)cs4)cc3)cc2C(=O)N(C)c2cccnc21 [Entry 1039],> 100,< 50,
CCN1c2ncc(CCOc3ccc(-c4cc(C(=O)O)on4)cc3)cc2C(=O)N(C)c2cccnc21 [Entry 1040],> 100,< 50,
CCN1c2ncc(CCOc3ccc(-c4ccc(C(=O)O)o4)cc3)cc2C(=O)N(C)c2cccnc21 [Entry 1045],50 to 100,< 50,
CCN1c2ncc(CCOc3ccc(-c4ccc(CCC(=O)O)o4)cc3)cc2C(=O)N(C)c2cccnc21 [Entry 1048],> 100,,IC50 [2]: < 50 nM
CCN1c2ncc(CCOc3ccc(-c4ccc(CCC(=O)O)o4)cc3C)cc2C(=O)N(C)c2cccnc21 [Entry 1049],> 100,,IC50 [2]: < 50 nM
CCN1c2ncc(CCOc3ccc(-c4occc4C(=O)O)cc3)cc2C(=O)N(C)c2cccnc21 [Entry 1050],,> 100,
CCN1c2ncc(CCOc3ccc(-c4ccc(F)c(CC(=O)O)c4)cc3C)cc2C(=O)N(C)c2cccnc21 [Entry 1057],< 50,< 50,
CCN1c2ncc(CCOc3ccc(-c4ncccn4)cc3)cc2C(=O)N(C)c2cccnc21 [Entry 1061],> 100,< 50,
CCN1c2ncc(CCOc3ccc(-c4cncnc4)cc3)cc2C(=O)N(C)c2cccnc21 [Entry 1062],> 100,< 50,
CCN1c2ncc(CCOc3ccc(-c4cc(C)ccn4)cc3C)cc2C(=O)N(C)c2cccnc21 [Entry 1065],< 50,< 50,
CCN1c2ncc(CCOc3ccc(-c4ccc(C)nc4)cc3C)cc2C(=O)N(C)c2cccnc21 [Entry 1072],< 50,,"EC50 [3, 5]: < 10 nM"
CCN1c2ncc(CCOc3ccc(-c4cccnc4C)cc3C)cc2C(=O)N(C)c2cccnc21 [Entry 1074],< 50,< 50,
"CCN1c2ncc(CCOc3ccc(-c4cnccc4C)cc3C)cc2C(=O)N(C)c2cccnc21 [Entry 1076, 11-Ethyl-5,11-dihydro-5-methyl-8-{2-[2-methyl-4-(4-methyl-3-pyridinyl)phenoxy]ethyl}-6H-dipyrido[3,2-b:2′,3′-e][1,4]diazepin-6-one]",,< 50,IC50 [1]: < 50 nM
"CCN1c2ncc(CCOc3ccc(-c4c[n+]([O-])ccc4C)cc3C)cc2C(=O)N(C)c2cccnc21 [Entry 1077, 11-Ethyl-5,11-dihydro-5-methyl-8-{2-[2-methyl-4-(4-methyl-1-oxido-3-pyridinyl)phenoxy]ethyl}-6H-dipyrido[3,2-b:2′,3′-e][1,4]diazepin-6-one]",,< 50,IC50 [1]: < 50 nM
CCN1c2ncc(CCOc3ccc(-c4ccc(C)[n+]([O-])c4C)cc3C)cc2C(=O)N(C)c2cccnc21 [Entry 1078],< 50,< 50,
CCN1c2ncc(CCOc3ccc(-c4ccc(N)nc4)cc3C)cc2C(=O)N(C)c2cccnc21 [Entry 1079],< 50,< 50,
CCN1c2ncc(CCOc3ccc(-c4cnc(N)c(C)c4)cc3C)cc2C(=O)N(C)c2cccnc21 [Entry 1080],< 50,< 50,
CCN1c2ncc(CCOc3ccc(-c4ccc(N)nc4C)cc3C)cc2C(=O)N(C)c2cccnc21 [Entry 1081],< 50,< 50,

SMILES,"IC50 [1, 4] [nM]",IC50 ([2]; wild type RT) [nM],other results
CCN1c2ncc(CCOc3ccc(-c4cc(C)cnc4N)cc3C)cc2C(=O)N(C)c2cccnc21 [Entry 1082],< 50,< 50,
CCN1c2ncc(CCOc3ccc(-c4cc[n+]([O-])cc4)cc3C)cc2C(=O)N(C)c2cccnc21 [Entry 1084],< 50,< 50,
CCN1c2ncc(CCOc3ccc(-c4ccnc(C)c4)cc3C)cc2C(=O)N(C)c2cccnc21 [Entry 1085],< 50,< 50,
CCN1c2ncc(CCOc3ccc(-c4cc[n+]([O-])c(C)c4)cc3C)cc2C(=O)N(C)c2cccnc21 [Entry 1086],< 50,< 50,
CCN1c2ncc(CCOc3ccc(-c4cc(C)nc(C)c4)cc3C)cc2C(=O)N(C)c2cccnc21 [Entry 1087],< 50,< 50,
CCN1c2ncc(CCOc3ccc(-c4cc(C)[n+]([O-])c(C)c4)cc3C)cc2C(=O)N(C)c2cccnc21 [Entry 1088],< 50,< 50,
CCN1c2ncc(CCOc3ccc(-c4cc[n+](C)cc4)cc3C)cc2C(=O)N(C)c2cccnc21 [Entry 1089],< 50,,"EC50 [3, 5]: < 10 nM"
CCN1c2ncc(CCOc3ccc(-c4cscn4)cc3)cc2C(=O)N(C)c2cccnc21 [Entry 1092],> 100,< 50,
"CCN1c2ncc(CCOc3ccc(-n4ccnc4)cc3C)cc2C(=O)N(C)c2cccnc21 [Entry 1098, 11-Ethyl-5,11-dihydro-8-{2-[4-(1H-imidazol-1-yl)-2-methylphenoxy]ethyl}-5-methyl-6H-dipyrido[3,2-b:2′,3′-e][1,4]diazepin-6-one]",,,"IC50 [1]: < 50 nM; EC50 [3, 6]: < 10 nM"
CCN1c2ncc(CCOc3ccc(-c4cc(F)c(O)c(F)c4)cc3C)cc2C(=O)N(C)c2cccnc21 [Entry 1103],50 to 100,< 50,
CCN1c2ncc(CCOc3ccc(-c4ccc(C)cc4)cc3C)cc2C(=O)N(C)c2cccnc21 [Entry 1105],< 50,< 50,
"CCN1c2ncc(CCOc3cccc(-c4ccc(C(=O)O)cc4)c3)cc2C(=O)N(C)c2cccnc21 [Entry 2001, 3′-[2-(11-Ethyl-6,11-dihydro-5-methyl-6-oxo-5H-dipyrido[3,2-b:2′,3′-e][1,4]diazepin-8-yl)ethoxy]-[1,1′-biphenyl]-4-carboxylic acid]",,> 100,
CCN1c2ncc(CCOc3cccc(-c4cccc(C(=O)O)c4)c3)cc2C(=O)N(C)c2cccnc21 [Entry 2002],,> 100,
CCN1c2ncc(CCOc3cccc(-c4ccccc4)c3)cc2C(=O)N(C)c2cccnc21 [Entry 2003],,< 50,IC50 [1]: > 100 nM
CCN1c2ncc(CCOc3ccc(C(=O)NCc4ccc(C(=O)O)cc4)cc3C)cc2C(=O)N(C)c2cccnc21 [Entry 3002],,< 50,IC50 [1]: < 50 nM
CCN1c2ncc(CCOc3ccc(C(=O)NCc4cc[n+]([O-])cc4)cc3C)cc2C(=O)N(C)c2cccnc21 [Entry 3003],,< 50,IC50 [1]: 50 to 100 nM
CCN1c2ncc(CCOc3ccc(C(=O)N(C)Cc4ccc(C(=O)O)cc4)cc3C)cc2C(=O)N(C)c2cccnc21 [Entry 3006],,< 50,IC50 [1]: 50 to 100 nM
CCN1c2ncc(CCOc3ccc(C(=O)Nc4ccc[n+]([O-])c4)cc3C)cc2C(=O)N(C)c2cccnc21 [Entry 3013],,< 50,IC50 [1]: < 50 nM
CCN1c2ncc(CCOc3ccc(C(=O)Nc4cccc[n+]4[O-])cc3C)cc2C(=O)N(C)c2cccnc21 [Entry 3015],,< 50,IC50 [1]: < 50 nM
CCN1c2ncc(CCOc3ccc(N(C)c4ccc(C(=O)O)cc4)cc3C)cc2C(=O)N(C)c2cccnc21 [Entry 3023],,< 50,IC50 [1]: 50 to 100 nM
CCN1c2ncc(CCOc3ccc(Nc4ccc(C(=O)O)cn4)cc3C)cc2C(=O)N(C)c2cccnc21 [Entry 3025],,,"IC50 [1]: < 50 nM; EC50 [3, 6]: 10 to 50 nM"
CCN1c2ncc(CCOc3ccc(NC(=O)c4ccc(Cl)nc4)cc3C)cc2C(=O)N(C)c2cccnc21 [Entry 3035],,< 50,IC50 [1]: < 50 nM
CCN1c2ncc(CCOc3ccc(NC(C)=O)cc3C)cc2C(=O)N(C)c2cccnc21 [Entry 4001],,< 50,IC50 [1]: 50 to 100 nM
CCN1c2ncc(CCOc3ccc(N(CC(=O)O)C(C)=O)cc3C)cc2C(=O)N(C)c2cccnc21 [Entry 4002],,< 50,IC50 [1]: > 100 nM
CCN1c2ncc(CCOc3ccc(N(Cc4ccc(C(=O)O)cc4)C(C)=O)cc3C)cc2C(=O)N(C)c2cccnc21 [Entry 4003],,50 to 100,IC50 [1]: > 100 nM
CCN1c2ncc(CCOc3ccc(NS(C)(=O)=O)cc3C)cc2C(=O)N(C)c2cccnc21 [Entry 4005],,< 50,IC50 [1]: < 50 nM
CCN1c2ncc(CCOc3ccc(C(=O)NN)cc3C)cc2C(=O)Nc2c(C)ccnc21 [Entry 4019],50 to 100,< 50,
